Data: patent publication US20220257569A1, “INDOLE-OXADIAZOLE COMPOUNDS AND THEIR THERAPEUTIC USE” (THE GOVERNING COUNCIL OF THE UNIVERSITY OF TORONTO, priority 2018, published 2022)

Legend:
[1] = biological target: T1, cannabinoid CB1 receptor (Homo sapiens, UniProt P21554); assay: PathHunter β-Arrestin assay (allosteric inhibition of agonist Emax); format: cell-based; conditions: FIG. 1; agonist CP55,940; calculated by GraphPad Prism; read-out: IC50 for reduction of Emax of CP55,940
T1 construct: host or cells: HEK293 CB1 β-arrestin cells
T1 sequence (P21554 whole entry): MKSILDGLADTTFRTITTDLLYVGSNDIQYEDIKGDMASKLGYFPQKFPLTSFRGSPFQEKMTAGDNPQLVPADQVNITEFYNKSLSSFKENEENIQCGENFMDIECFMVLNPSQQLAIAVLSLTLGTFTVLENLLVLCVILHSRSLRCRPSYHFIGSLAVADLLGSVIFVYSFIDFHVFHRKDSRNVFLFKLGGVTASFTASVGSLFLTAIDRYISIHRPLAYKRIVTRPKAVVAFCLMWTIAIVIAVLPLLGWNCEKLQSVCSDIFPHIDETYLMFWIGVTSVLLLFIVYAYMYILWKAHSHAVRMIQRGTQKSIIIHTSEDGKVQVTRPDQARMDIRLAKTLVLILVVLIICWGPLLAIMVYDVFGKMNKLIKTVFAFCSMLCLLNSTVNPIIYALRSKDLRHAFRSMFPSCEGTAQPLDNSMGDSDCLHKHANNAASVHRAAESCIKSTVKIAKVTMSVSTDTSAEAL

[2] = biological target: T1, cannabinoid CB1 receptor; assay: as above; format: cell-based; conditions: FIG. 1; reduction in Emax not overcome by higher concentrations of agonist
Excerpt: PathHunter™ enzyme fragment complementation is the most important method to measure β-arrestin recruitment. PathHunter™ β-Arrestin assays developed by DiscoveRX are revolutionary high-throughput screening assays for monitoring GPCR activation following ligand stimulation, without an imaging instrument, fluorescent protein tag, or radioactivity.
Instead, the assays detect GPCR activation through binding of β-arrestin to the expressed GPCR of interest, and measure the interaction of the two proteins using enzyme fragment complementation (EFC). The EFC approach offers a range of benefits for screening, including signal amplification and robust performance.
The larger portion of β-gal, termed EA for enzyme acceptor, is fused to the C-terminus of β-arrestin. The smaller, complementing fragment of β-gal, the ProLink™ tag, is expressed as a fusion protein with the GPCR of interest at the C-terminus. Upon activation, the GPCR is bound by β-arrestin. The interaction of β-arrestin and the GPCR forces the interaction of ProLink and EA, thus allowing complementation of the two fragments of β-gal and the formation of a functional enzyme capable of hydrolyzing substrate and generating a […] signal.
Using the PathHunter™ CB1 kit from DiscoveRX, a cannabinoid CB1 receptor agonist is added and activates the receptor, EA, which is fused to the C-terminus of β-arrestin, and then interacts with the ProLink™ tag which is fused to the CB1 receptor. This will result in the […] signal that is recorded by a luminescence plate reader. The […] signal is directly related to the activation of the receptor, therefore a higher concentration of agonist will yield a larger […] signal. The cannabinoid agonist is added in increasing concentrations to obtain an agonist dose response curve. With pre-incubation of a potential allosteric modulator, either an enhancement of agonist activity with an allosteric enhancer or a decrease in the maximal response of the agonist with an allosteric inhibitor is expected.
All raw data are obtained as luminescence (relative light units), and are normalised and presented as a percentage of the maximal response for the cannabinoid CB1 receptor agonist CP55,940 (2-[(1R,2R,5R)-5-hydroxy-2-(3-hydroxypropyl)cyclohexyl]-5-(2-methyloctan-2-yl)phenol).
The PathHunter™ β-Arrestin assay (from DiscoveRX, Fremont, USA) was performed as follows. HEK293 CB1 β-arrestin cells were plated 48 hours before use and incubated at 37° C., 5% CO2 in a humidified incubator. Test compounds were dissolved in dimethylsulfoxide (DMSO) and diluted in optimized cell culture (OCC, as supplied by DiscoveRX) media to the required concentrations. 5 μL of test compound or vehicle solution was added to each well and incubated for 60 minutes at 37° C., 5% CO2 in a humidified incubator. 5 μL of increasing concentrations of anandamide was added to each well followed by a 90-minute incubation at 37° C., 5% CO2 in a humidified incubator. 55 μL of detection reagent (as supplied by DiscoveRX) was then added, followed by a further 90 minute incubation at room temperature in the dark. Chemiluminescence, reported in relative light units (RLU—a dimensionless value, standardised as a % of maximum stimulation with anandamide), was measured on a standard luminescence plate reader.
Data were plotted as % of maximal stimulation (Emax) caused by agonist versus the logarithm of concentration of agonist, in the presence or absence of a fixed concentration of test compound (modulator) or vehicle. For example, stimulation in the presence of agonist alone will give a value for stimulation expressed in RLU, which can be expressed as a range from 0% (at lowest agonist concentration, e.g., 1 nM) to 100% (at the highest agonist concentration, e.g., 10 μM). […]

[3] = tested on: GluN1KD mice; assay: Open field test in GluN1KD mice and WT littermates; format: in vivo; conditions: 10 mg/kg; for Locomotor Activity (total distance traveled) / Stereotypy (total stereotypic movements) / Vertical Activity (total): mean±SEM
Excerpt: Functional NMDARs are composed of a common GluN1 subunit and one of four GluN2 subunits (GluN2A-GluN2D) combined in an undetermined ratio to make the heteromeric receptor complex. Recent studies using post mortem prefrontal cortex samples from patients with SCZ and depression, display a series of changes in NMDAR regulation. Endocannabinoids, via CB1Rs, control the presence of NR1 C1 subunits in the neural membrane which has implications for psychosis and SCZ. […] The GluN1KD (NMDAR hypofunction model) mouse line expresses 5-10% of the normal level of the subunit. GluN1KD mice display behavioural abnormalities that have been related to SCZ; these behaviours are normalized by the antipsychotics haloperidol and clozapine. At the dopamine level, GluN1KD mice have remodelled dopamine neurons, leading to a state of hyperdopaminergia, manifesting as an increase in tonic firing rates of dopaminergic neurons (Ferris et al., 2014).
(§1) Adult (>P70) GluN1-knockdown (GluN1KD—F1: C571Bl/6J x 129S1/SvlmJ) and DAT-knockout (DATKO—C57Bl/6J), balanced for sex, were treated with either vehicle (1:1:18-Tween80:95% ethanol:saline) or a novel CB1 negative allosteric modulator (CB1 NAM), ABM300, at 10 mg/kg, was tested in behavioural assays, and compared to littermate controls. Locomotor, stereotypic movements and vertical activity were tested, along with anxiety/mania and sensorimotor gating behaviours. All data were analyzed with two- or three-way ANOVA, as appropriate, and corrected for multiple comparisons.
Classically, locomotor output has been used as a gold standard for the measure of dopamine system dysfunction. The role of dopamine in movement control is well defined and, in its simplest forms, testing for hyperactivity is based on the premise that enhanced dopaminergic activity in rodents leads to enhanced motor activity (van den Buuse et al., 2010). Locomotor, stereotypic and vertical activity was recorded using digital activity monitors, quantifying horizontal and vertical activity, along with repetitive behaviour, via infrared beam breaks. GluN1 KD and DATKO display basal hyperactivity, with increases in stereotypic behaviours which can be ameliorated with antipsychotics (Peleg-Raibstein et al., 2008).

[4] = tested on: DATKO mice; assay: Pre-pulse inhibition (PPI) of acoustic startle response; format: in vivo; conditions: 10 mg/kg
Procedure: as §1
Loss of PPI is a common symptom found in SCZ and is widely accepted as an endophenotype. It is commonly considered an “interface” of psychosis and cognition. PPI deficits have been described in other psychiatric diseases; during acute mania in BD (Perry et al., 2001). PPI was measured via automated startle boxes. GluN1 KD and DATKO mice all display deficits in PPI, and this behaviour is responsive to treatment with antipsychotics.

[5] = WT (F1: C57Bl/6J x 129S1/SvlmJ) mice, open field

IC50 [1]: 1 nM
melting point: 252 to 254 °C
Compound: CCc1c(-c2nnc(Nc3ccccc3)o2)[nH]c2ccc(Cl)cc12 [ABM300, 5-(5-Chloro-3-ethyl-1H-indol-2-yl)-N-phenyl-1,3,4-oxadiazol-2-amine]
type of modulation [2]: allosteric inhibitor (negative allosteric modulator)
effect on hyperactivity (in words) ([3]; GluN1KD mice): reduces hyperactivity
effect on abnormal stereotypic behaviours (in words) ([3]; GluN1KD mice, open field): reduces abnormal stereotypic behaviours
effect on abnormal vertical exploration (risk-taking behaviour) (in words) ([3]; GluN1KD mice, open field): reduces abnormal vertical exploration
Locomotor Activity (total distance traveled) ([3]; GluN1KD mice, open field): 5857 ± 1242 cm
Stereotypy (total stereotypic movements) ([3]; GluN1KD mice, open field): 891 ± 93
Vertical Activity (total) ([3]; GluN1KD mice, open field): 479 ± 142
Locomotor Activity (total distance traveled) [3, 5]: 688 ± 193 cm
Stereotypy (total stereotypic movements) [3, 5]: 298.80 ± 45
Vertical Activity (total) [3, 5]: 43.91 ± 26
effect on sensorimotor gating deficits, pre-pulse inhibition (in words) [4]: rescues sensorimotor gating deficits
